Laboratory results reported in the supplement of paper PMC10331698.
± gives the standard deviation of the averaged measurements.

What was measured:
[1] = compound: OCC(F)(F)C(F)(F)C(F)(F)C(F)(F)C(F)(F)C(F)(F)F [6:1 Fluorotelomer alcohol]; assay: level (log10 ratio to DMSO vehicle control); higher = higher biomarker level / cell amount than vehicle control; settings: in DMSO
Procedure: (§1)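 BioMAP Diversity Plus panel of 12 human primary cell co-culture systems (3C, 4H, LPS, SAg, BT, BF4T, BE3C, CASM3C, HDF3CGF, KF3CT, MyoF, Mphg). Compounds were added 1 h before stimulation and left for 24 h (MyoF 48 h; BT 72 h for soluble read-outs or 6 d for IgG). Biomarkers were read by ELISA, cytotoxicity by SRB, PBMC viability and proliferation by Alamar Blue. Each well value was divided by the mean of 8 DMSO control wells on the same plate and log10 transformed; duplicate blinded samples were tested at 4 concentrations.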

[2] = compound: O=C(O)C(F)(F)C(F)(F)C(F)(F)C(F)(F)C(F)(F)C(F)(F)C(F)(F)F [Ammonium perfluorooctanoate]; assay: as above; settings: in DMSO
Procedure: as §1

Row | Test System | level (log10) ([1]; 6700 nM) | level (log10) ([1]; 20000 nM) | level (log10) ([1]; 60000 nM) | level (log10) ([2]; 6700 nM) | level (log10) ([2]; 20000 nM) | level (log10) ([2]; 60000 nM)
1 | lMphg:CD69 | -0.007 ± 0.047 | -0.038 ± 0.052 | -0.055 ± 0.073 | -0.0285 ± 0.018 | -0.0185 ± 0.028 | -0.0715 ± 0.0064
2 | KF3CT:CXCL8/IL-8 | -0.0005 ± 0.025 | -0.0045 ± 0.023 | 0.0025 ± 0.015 | 0.0075 ± 0.032 | 0.036 ± 0.018 | 0.034 ± 0.02
3 | MyoF:SRB | 0.003 ± 0.02 | 0.0015 ± 0.016 | -0.089 ± 0.13 | 0.0005 ± 0.011 | 0.01 ± 0.011 | -0.048 ± 0.014
4 | 3C:CD62E/E-Selectin | -0.001 ± 0.0099 | -0.011 ± 0.0085 | 0.0125 ± 0.0078 | 0.006 ± 0.011 | -0.007 ± 0.017 | 0.0085 ± 0.046
5 | HDF3CGF:CD54/ICAM-1 | -0.0075 ± 0.011 | 0.008 ± 0.02 | 0.0075 ± 0.011 | -0.0145 ± 0.015 | -0.043 ± 0.0057 | -0.054 ± 0.016
6 | KF3CT:MMP-9 | -0.018 ± 0.0028 | -0.0315 ± 0.0021 | 0.002 ± 0.0028 | 0.0045 ± 0.018 | 0.017 ± 0.0099 | 0.0105 ± 0.023
7 | MyoF:CXCL8/IL-8 | -0.0055 ± 0.025 | -0.0095 ± 0.037 | -0.005 ± 0.025 | 0.019 ± 0.011 | 0.004 ± 0.017 | 0.036 ± 0.065
8 | 3C:CD141/Thrombomodulin | -0.0155 ± 0.018 | -0.0285 ± 0.0092 | -0.005 ± 0.02 | -0.01 ± 0.017 | -0.0185 ± 0.012 | -0.0375 ± 0.032
9 | HDF3CGF:CCL2/MCP-1 | -0.014 ± 0.028 | -0.013 ± 0.057 | -0.044 ± 0.082 | -0.0285 ± 0.0092 | -0.0605 ± 0.0078 | -0.068 ± 0.014
10 | CASM3C:SRB | 0.008 | 0.003 ± 0.0057 | -0.04 ± 0.0042 | -0.0015 ± 0.00071 | -0.001 ± 0.0099 | -0.0005 ± 0.00071
11 | KF3CT:SRB | -0.0035 ± 0.0064 | -0.0025 ± 0.0035 | -0.004 ± 0.0028 | -0.0125 ± 0.0035 | -0.0115 ± 0.0021 | -0.0195 ± 0.0021
12 | HDF3CGF:M-CSF | 0 ± 0.02 | 0.0355 ± 0.0092 | -0.225 ± 0.03 | 0.002 ± 0.037 | 0.034 ± 0.017 | -0.049 ± 0.042
13 | CASM3C:CCL2/MCP-1 | -0.015 ± 0.0071 | -0.0125 ± 0.0078 | -0.034 ± 0.034 | 0.008 ± 0.017 | -0.004 ± 0.0014 | 0.051 ± 0.033
14 | KF3CT:uPA | -0.0045 ± 0.0092 | -0.002 ± 0.018 | 0.0085 ± 0.025 | 0.0125 ± 0.012 | 0.006 ± 0.017 | 0.001 ± 0.013
15 | KF3CT:TIMP-2 | -0.0025 ± 0.005 | 0.0035 ± 0.0021 | 0.008 ± 0.017 | -0.006 ± 0.0028 | -0.011 ± 0.018 | 0.0065 ± 0.025
16 | lMphg:IL-1alpha | 0.007 ± 0.04 | 0.006 ± 0.061 | 0.001 ± 0.034 | 0.0005 ± 0.026 | 0.0005 ± 0.0064 | 0.004 ± 0.014
17 | lMphg:CD40 | -0.0065 ± 0.026 | -0.0095 ± 0.019 | -0.0235 ± 0.022 | 0.0115 ± 0.053 | -0.0145 ± 0.0092 | -0.0585 ± 0.023
18 | HDF3CGF:Proliferation 72hr | -0.0265 ± 0.033 | 0.003 ± 0.011 | -0.87 ± 0.098 | 0.058 ± 0.065 | 0.124 ± 0.018 | 0.119 ± 0.021
19 | CASM3C:IL-6 | -0.008 ± 0.025 | -0.0165 ± 0.042 | -0.0005 ± 0.0021 | -0.0035 ± 0.025 | -0.024 ± 0.048 | -0.018 ± 0.05
20 | HDF3CGF:CXCL10/IP-10 | -0.002 ± 0.0014 | -0.017 ± 0.044 | -0.401 ± 0.061 | -0.015 ± 0.0042 | -0.023 ± 0.016 | -0.0495 ± 0.04
